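How tested: cells in 96-well plates exposed to compound for 48 hours at five concentrations. TGI is the concentration that stops growth completely.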 *1 amine or outer side, *2 acyl side, *3 side chain or, on linkers, in order; H or OH if unused. Where a SMILES comes first, the peptide text is derived from it. [ ]: non-standard residue; d: D form. The star is where a group is joined. X31 = CC(=O)N(C)SCC(N[*:1])C(=O)[*:2]; Cbz = O=C(OCc1ccccc1)*; Bn = c1ccc(C*)cc1
Assays:
Experiment in all cases: inhibition of tumour cell growth, NCI panel, 48 h
HL-60(TB) leukemia = test system: HL-60(TB) leukemia
MOLT-4 leukemia = test system: MOLT-4 leukemia
NCI-H23 lung = test system: NCI-H23 lung
OVCAR-5 ovarian = test system: OVCAR-5 ovarian
LOX IMVI melanoma = test system: LOX IMVI melanoma
ACHN renal = test system: ACHN renal
T-47D breast = test system: T-47D breast
NCI-H226 lung = test system: NCI-H226 lung
U251 CNS = test system: U251 CNS
SF-539 CNS = test system: SF-539 CNS

SMILES | TGI (HL-60(TB) leukemia) | TGI (MOLT-4 leukemia) | TGI (NCI-H23 lung) | TGI (OVCAR-5 ovarian) | TGI (LOX IMVI melanoma) | TGI (ACHN renal) | TGI (T-47D breast) | TGI (NCI-H226 lung) | TGI (U251 CNS) | TGI (SF-539 CNS)
CC1C(OC2O[C@@H]3O[C@@]4(C)CC[C@H]5[C@H](C)CC[C@@H](C2C)[C@@]35O4)O[C@@H]2O[C@@]3(C)CC[C@H]4[C@H](C)CC[C@@H]1[C@@]24O3 (stereo not given in full) | > 50 µM | > 50 µM | > 50 µM | > 50 µM | > 50 µM | > 50 µM | > 50 µM | > 50 µM | > 50 µM | > 50 µM
O=C1C=CC(=O)c2c1ccc1c3ccccc3n(Cc3cccc([N+](=O)[O-])c3)c21 | 15.3 µM | 37.7 µM | 50.4 µM | > 100 µM | > 100 µM | 38 µM | 67.7 µM | > 100 µM | > 100 µM | > 80.6 µM
CC1CCC2(CC1)NC1=C(CC(C)CC1)C1=C2CC(C)CC1 (stereo not given) | 35.9 µM | 53 µM | 59 µM | 57.9 µM | 34.9 µM | 62.8 µM | 78.6 µM | 30.8 µM | 33.5 µM | 40.6 µM
COC(=O)/C=C/C1(O)C=CC(=O)C=C1 | 6.8 µM | > 24.6 µM | 17.5 µM | 12 µM | 4.74 µM | 5.25 µM | > 20.8 µM | 47.1 µM | > 26.5 µM | 4.45 µM
C[N+](C)(C)CC(=O)N/N=C/c1ccncc1 | > 100 µM | > 100 µM | > 100 µM | > 100 µM | > 100 µM | > 100 µM | > 100 µM | > 100 µM | > 100 µM | > 100 µM
c1ccc2c(c1)NC1(N3CCCCC3)CCCCC21 (stereo not given) | 82.2 µM | 85.1 µM | > 100 µM | > 100 µM | > 100 µM | > 100 µM | 78.1 µM | > 100 µM | > 100 µM | > 100 µM
COc1cccc(N(CN2C(=O)CCC2C(=O)O)C(C)=O)c1 (stereo not given) | > 100 µM | > 100 µM | > 100 µM | > 100 µM | > 100 µM | > 100 µM | > 100 µM | > 100 µM | > 100 µM | > 100 µM
CCOc1cc2oc(C)cc(=O)c2c(OC)c1C=Nc1ccc(Cn2c(C)nc3ccccc32)cc1 | > 100 µM | > 100 µM | > 100 µM | > 100 µM | > 100 µM | > 100 µM | > 100 µM | > 100 µM | > 100 µM | > 100 µM
Cc1cc(S(=O)(=O)/N=C(/[N-]S(=O)(=O)c2ccc(Cl)cc2)[n+]2ccc(N(C)C)cc2)c(SCC(=O)O)cc1Cl | > 100 µM | > 100 µM | > 100 µM | > 100 µM | > 100 µM | > 100 µM | > 100 µM | > 100 µM | > 100 µM | > 100 µM
CN1CN(c2ccccc2)C2(CCN(CCC3COc4ccccc4O3)CC2)C1=O (stereo not given) | 45.8 µM | 70.1 µM | > 100 µM | 45.9 µM | 50.4 µM | > 100 µM | 62.3 µM | 85.1 µM | 66.5 µM | 38 µM
CC(=O)N(C)SCC(NC(=O)C(Cc1ccccc1)NC(=O)OCc1ccccc1)C(=O)NC(Cc1ccccc1)C(=O)NC(Cc1c[nH]c2ccccc12)C(=O)NC(CCCCNC(=O)OCc1ccccc1)C(=O)NC(C(=O)NC(CSN(C)C(C)=O)C(=O)NC(C(N)=O)C(C)OCc1ccccc1)C(C)OCc1ccccc1 (stereo not given) (Cbz-F[X31]FWK(Cbz)T(Bn)[X31]T(Bn)-NH2; configuration not given here) | > 100 µM | > 100 µM | > 100 µM | > 100 µM | > 100 µM | > 100 µM | > 100 µM | > 100 µM | > 100 µM | > 100 µM
CCOC(=O)C(NC(=O)c1ccccc1)(Nc1ccc(Cl)cc1C(F)(F)F)C(F)(F)F (stereo not given) | 5.04 µM | > 22.2 µM | > 78 µM | > 100 µM | > 100 µM | 27.4 µM | > 45.6 µM | > 100 µM | 19 µM | > 88.6 µM
COC(=O)[C@H](CC(C)C)Nc1c(O)c2c(c(O)c1Cl)C(=O)C=CC2=O | > 10 µM | > 10 µM | > 10 µM | > 10 µM | 5.74 µM | > 10 µM | > 10 µM | > 10 µM | > 10 µM | > 10 µM
CCOC1Oc2ccccc2-c2nc(SC)ncc21 (stereo not given) | > 100 µM | > 100 µM | > 100 µM | > 100 µM | > 100 µM | > 100 µM | > 100 µM | > 100 µM | > 100 µM | > 100 µM
